The values below are quoted from earlier work in US20160143876A1, “MAINTENANCE THERAPY REGIME/REGIMEN FOR THE TREATMENT OF ACNE” (GALDERMA RESEARCH & DEVELOPMENT, priority 2008, published 2016).

For data set [1] the following is noted: applied as monotherapy.
Data set [2] has as its system acne. Particulars: in vivo.

Take `COc1ccc(-c2ccc3cc(C(=O)O)ccc3c2)cc1C12CC3CC(CC(C3)C1)C2` [Adapalene, 6-[3-(1-adamantyl)-4-methoxyphenyl]-2-naphtoic acid]: the “Tolerability profile compared to other topical retinoids” value in data set [1] is reported as “more favorable tolerability profile”.
Consider `CC1=C(/C=C/C(C)=C/C=C/C(C)=C\C(=O)O)C(C)(C)CCC1` [isotretinoin], for which the “Patients who relapse after treatment” value in data set [2] is recorded as “up to 21%”.
